Data reported in patent publication US20250320213A1, “Nitrogen-Containing Heterocyclic Compounds” (Pfizer Inc., priority 2024, published 2025).

Legend:
[1] = tested on: CCL17 secretion in peripheral human whole blood; test: Human Whole Blood (HWB) CCL17 TR-FRET Assay (IL-13 stimulated CCL17 secretion); assay type: cell-based; settings: Homo sapiens, 48 h, inhibition of CCL17 secretion in human whole blood, 10 ng/mL IL13, 48 hours
Description: The IC50 (half-maximal concentration required for inhibition) of compounds for the inhibition of CCL17 secretion in peripheral human whole blood, stimulated through the IL-13-IL-13 receptor/IL-4 receptor pathway was evaluated with a TR-FRET sandwich ELISA CCL17 (TARC) Assay Kit (Bioauxilium).
Test compounds (solubilized and serially diluted in DMSO, in an 11 point, 3-fold dilution series in duplicate) were spotted, 80 nL per well, into a 384 well v-bottom polypropylene plate. Human whole blood was collected from a peripheral vein, 714 units of sodium heparin was added for every 50 mL of blood collected. Sixty μL per well of blood was added to the compound plate. The blood plate was incubated for two hours at 37° C. After two hours, CCL17 production was stimulated with the addition of 20 μL per well of IL13 (R&D Systems) in HBSS with calcium and magnesium, with a final concentration of 10 ng/mL IL13. The plate containing blood, compound, and IL-13 was incubated at 37° C. for 48 hours, to allow for CCL17 production. After 48 hours, the plate was centrifuged at 1,500 revolutions per minute (RPM) for 7 minutes, with no braking. The CCL17 TR-FRET Assay Kit detection reagent was prepared according to kit instructions and 4 μL per well of the antibody cocktail was added to a 384-well white low volume non-binding coated plate (Corning). Sixteen μL of serum from the centrifuged blood plate was transferred to the detection plate containing the TR-FRET antibody cocktail. The plate was centrifuged briefly, then covered and incubated 16 hours at room temperature. The plate was then read on an EnVision 2105 multilabel reader (PerkinElmer) with settings for TR-FRET Ratio=10,000×(fluorescence intensity 665 nm/fluorescence intensity 615 nm).

STAT6 = molecular target: T1, STAT6 (Homo sapiens, UniProt P42226); test: STAT6 Reporter Luciferase Assay (IL-13 stimulated HaCaT keratinocyte NanoLuc reporter cells); assay type: cell-based; settings: STAT6 NanoLuc luciferase reporter, IL-13 stimulated HaCaT keratinocyte cells; read-out: Reporter EC50
T1 construct: stably transfected HaCaT keratinocyte cell line, which expresses NanoLuc luciferase reporter gene under the transcriptional control of the STAT6 responsive promoter; endogenous in cells; host or cells: HaCaT keratinocyte reporter cell line (stably transfected with a NanoLuc reporter)
T1 sequence (P42226 1-847): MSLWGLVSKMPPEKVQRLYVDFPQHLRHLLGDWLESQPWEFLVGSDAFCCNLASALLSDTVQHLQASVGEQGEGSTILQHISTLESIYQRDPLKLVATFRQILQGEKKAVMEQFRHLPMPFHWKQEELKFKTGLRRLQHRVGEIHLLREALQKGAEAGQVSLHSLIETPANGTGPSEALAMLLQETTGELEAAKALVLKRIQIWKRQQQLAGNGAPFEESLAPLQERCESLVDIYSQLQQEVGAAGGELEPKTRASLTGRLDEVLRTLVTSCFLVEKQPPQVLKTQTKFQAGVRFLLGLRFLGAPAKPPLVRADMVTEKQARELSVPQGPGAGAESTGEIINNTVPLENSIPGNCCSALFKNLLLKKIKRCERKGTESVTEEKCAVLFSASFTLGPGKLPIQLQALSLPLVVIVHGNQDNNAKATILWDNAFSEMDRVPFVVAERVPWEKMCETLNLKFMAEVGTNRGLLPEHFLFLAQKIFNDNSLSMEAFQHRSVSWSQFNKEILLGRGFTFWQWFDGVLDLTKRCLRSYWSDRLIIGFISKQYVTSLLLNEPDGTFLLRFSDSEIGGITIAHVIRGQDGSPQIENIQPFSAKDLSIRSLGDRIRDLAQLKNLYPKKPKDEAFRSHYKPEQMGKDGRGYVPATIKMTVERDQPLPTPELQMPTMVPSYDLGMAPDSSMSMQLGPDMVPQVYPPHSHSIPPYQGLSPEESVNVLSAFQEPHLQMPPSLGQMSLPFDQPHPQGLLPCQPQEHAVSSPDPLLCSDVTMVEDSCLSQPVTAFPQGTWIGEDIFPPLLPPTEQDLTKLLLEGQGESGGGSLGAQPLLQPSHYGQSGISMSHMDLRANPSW
How it was run: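 Compounds were tested as 11-point, 4-fold series in duplicate, applied for 2 h at 37 °C in low-serum (2% FBS) DMEM. The cells were a stable HaCaT line with NanoLuc under a STAT6-responsive IL-13Ra2 promoter. After 4 h with 0.12 nM IL-13, Nano-Glo luminescence was measured.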

IC50 [1]	EC50 (STAT6)	SMILES
0.045 µM	0.004 µM	CCC1CN(c2ccc(C(=O)N(C)C)cn2)Cc2c(C(=O)NCc3ccc(NC(=O)N(C)C)cc3)nn(C)c21 (racemic) [Example 77, rac-(R)-5-(5-(Dimethylcarbamoyl)pyridin-2-yl)-N-(4-(3,3-dimethylureido)benzyl)-7-ethyl-1-methyl-4,5,6,7-tetrahydro-1H-pyrazolo[4,3-c]pyridine-3-carboxamide]
> 30 µM	> 10 µM	CC(C)n1nc(C(=O)NCc2ccc(NC(=O)N(C)C)cc2)c2c1CCN(c1ccc(N3CC(CO)OC3=O)cn1)C2 (racemic) [Example 80, rac-(R)-N-(4-(3,3-dimethylureido)benzyl)-5-(5-(5-(hydroxymethyl)-2-oxooxazolidin-3-yl)pyridin-2-yl)-1-isopropyl-4,5,6,7-tetrahydro-1H-pyrazolo[4,3-c]pyridine-3-carboxamide]
0.115 µM	0.034 µM	CC(NC(=O)c1nn(C(C)C)c2c1CN(c1ccc(C(=O)N(C)C)cn1)CC2)c1ccc(NC(=O)N(C)C)cc1 (racemic) [Example 81, rac-(R)-5-(5-(dimethylcarbamoyl)pyridin-2-yl)-N-(1-(4-(3,3-dimethylureido)phenyl)ethyl)-1-isopropyl-4,5,6,7-tetrahydro-1H-pyrazolo[4,3-c]pyridine-3-carboxamide]
0.09 µM	0.006 µM	CCC(C)n1nc(C(=O)NCc2ccc(NC(=O)N(C)C)cc2)c2c1CCN(c1ccc(C(=O)N(C)C)cn1)C2 (racemic) [Example 85, rac-(R)-1-(sec-butyl)-5-(5-(dimethylcarbamoyl)pyridin-2-yl)-N-(4-(3,3-dimethylureido)benzyl)-4,5,6,7-tetrahydro-1H-pyrazolo[4,3-c]pyridine-3-carboxamide]
0.067 µM	0.025 µM	CN(C)C(=O)Nc1ccc(CNC(=O)c2nn(C3CCOC3)c3c2CN(c2ccc(C(=O)N(C)C)cn2)CC3)cc1 (racemic) [Example 90, rac-(R)-5-(5-(dimethylcarbamoyl)pyridin-2-yl)-N-(4-(3,3-dimethylureido)benzyl)-1-(tetrahydrofuran-3-yl)-4,5,6,7-tetrahydro-1H-pyrazolo[4,3-c]pyridine-3-carboxamide]
0.062 µM	0.02 µM	COCC(C)n1nc(C(=O)NCc2ccc(NC(=O)N(C)C)cc2)c2c1CCN(c1ccc(C(=O)N(C)C)cn1)C2 (racemic) [Example 92, rac-(R)-5-(5-(dimethylcarbamoyl)pyridin-2-yl)-N-(4-(3,3-dimethylureido)benzyl)-1-(1-methoxypropan-2-yl)-4,5,6,7-tetrahydro-1H-pyrazolo[4,3-c]pyridine-3-carboxamide]
2.27 µM	0.525 µM	CC(C)n1nc(C(=O)NCc2ccc(NC(=O)N(C)C)cc2)c2c1CCN(c1ccc(N3CC(O)CC3=O)cn1)C2 (racemic) [Example 93, rac-(R)-N-(4-(3,3-dimethylureido)benzyl)-5-(5-(4-hydroxy-2-oxopyrrolidin-1-yl)pyridin-2-yl)-1-isopropyl-4,5,6,7-tetrahydro-1H-pyrazolo[4,3-c]pyridine-3-carboxamide]
0.006 µM	0.001 µM	CC1CN(c2ccc(C(=O)N(C)C)cn2)Cc2c(C(=O)NCc3ccc(NC(=O)N(C)C)cc3)nn(C(C)C)c21 (racemic) [Example 95, rac-(R)-5-(5-(dimethylcarbamoyl)pyridin-2-yl)-N-(4-(3,3-dimethylureido)benzyl)-1-isopropyl-7-methyl-4,5,6,7-tetrahydro-1H-pyrazolo[4,3-c]pyridine-3-carboxamide]
0.053 µM	0.005 µM	CC(n1nc(C(=O)NCc2ccc(NC(=O)N(C)C)cc2)c2c1CCN(c1ccc(C(=O)N(C)C)cn1)C2)C(F)(F)F (racemic) [Example 101, rac-(R)-5-(5-(dimethylcarbamoyl)pyridin-2-yl)-N-(4-(3,3-dimethylureido)benzyl)-1-(1,1,1-trifluoropropan-2-yl)-4,5,6,7-tetrahydro-1H-pyrazolo[4,3-c]pyridine-3-carboxamide]
0.012 µM	0.002 µM	CCC1CN(c2ccc(C(=O)N(C)C)cn2)Cc2c(C(=O)NCc3ccc(NC(=O)N(C)C)cc3)nn(CC)c21 (racemic) [Example 115, rac-(R)-5-(5-(dimethylcarbamoyl)pyridin-2-yl)-N-(4-(3,3-dimethylureido)benzyl)-1,7-diethyl-4,5,6,7-tetrahydro-1H-pyrazolo[4,3-c]pyridine-3-carboxamide]
0.061 µM	0.01 µM	CCC1Cc2c(c(C(=O)NCc3ccc(NC(=O)N(C)C)cc3)nn2CC)CN1c1ccc(C(=O)N(C)C)cn1 (racemic) [Example 116, rac-(R)-5-(5-(dimethylcarbamoyl)pyridin-2-yl)-N-(4-(3,3-dimethylureido)benzyl)-1,6-diethyl-4,5,6,7-tetrahydro-1H-pyrazolo[4,3-c]pyridine-3-carboxamide]
0.006 µM	0.001 µM	CC(C)n1nc(C(=O)NCc2ccc(NC(=O)N(C)C)cn2)c2c1C(C(F)(F)F)CN(c1ccc(C(=O)N(C)C)cn1)C2 (racemic) [Example 121, rac-(R)-5-(5-(dimethylcarbamoyl)pyridin-2-yl)-N-((5-(3,3-dimethylureido)pyridin-2-yl)methyl)-1-isopropyl-7-(trifluoromethyl)-4,5,6,7-tetrahydro-1H-pyrazolo[4,3-c]pyridine-3-carboxamide]
0.077 µM	0.023 µM	CCC1CN(c2ccc(C(=O)N(C)C)cn2)Cc2c(C(=O)NCc3ccc(NC(=O)N(C)C)cc3)nc(C)n21 (racemic) [Example 130, rac-(R)-7-(5-(dimethylcarbamoyl)pyridin-2-yl)-N-(4-(3,3-dimethylureido)benzyl)-5-ethyl-3-methyl-5,6,7,8-tetrahydroimidazo[1,5-a]pyrazine-1-carboxamide]
0.141 µM	0.012 µM	CC(C)n1nc(C(=O)NCc2ccc(NC(=O)NCC3CCOC3)cc2)c2c1CCN(c1ccc(C(=O)N(C)C)cn1)C2 (racemic) [Example 155, rac-(R)-5-(5-(dimethylcarbamoyl)pyridin-2-yl)-1-isopropyl-N-(4-(3-((tetrahydrofuran-3-yl)methyl)ureido)benzyl)-4,5,6,7-tetrahydro-1H-pyrazolo[4,3-c]pyridine-3-carboxamide]

SMILES	IC50 [1]	EC50 (STAT6)
CN(C)C(=O)Nc1ccc(CNC(=O)c2nn(C)c3c2[C@@H]2COC[C@H](C3)N2c2ccc(C(=O)N(C)C)cn2)cc1 (racemic) [Example 72, rac-(4R,8S)-10-(5-(dimethylcarbamoyl)pyridin-2-yl)-N-(4-(3,3-dimethylureido)benzyl)-1-methyl-1,4,5,7,8,9-hexahydro-4,8-epiminooxocino[5,4-c]pyrazole-3-carboxamide]	1.1 µM	0.308 µM
CN(C)C(=O)Nc1ccc(CNC(=O)c2nn(C)c3c2[C@H]2CC[C@@H](C3)N2c2ccc(C(=O)N(C)C)cn2)cc1 (racemic) [Example 86, rac-(4R,7S)-9-(5-(dimethylcarbamoyl)pyridin-2-yl)-N-(4-(3,3-dimethylureido)benzyl)-1-methyl-1,4,5,6,7,8-hexahydro-4,7-epiminocyclohepta[c]pyrazole-3-carboxamide]	> 30 µM	> 10 µM
